Molecular target: T1, purified recombinant 6HIS-Tev-LRRK2 (1326-2527) (Homo sapiens, UniProt Q5S007)
T1 construct: A LRRK2 cDNA encoding residues 1326-2527 was received from Dundee University; made in house; host or cells: Spodoptera frugiperda (Sf9) insect cells, baculovirus (pFB-HTb)
T1 sequence (Q5S007 1326-2527): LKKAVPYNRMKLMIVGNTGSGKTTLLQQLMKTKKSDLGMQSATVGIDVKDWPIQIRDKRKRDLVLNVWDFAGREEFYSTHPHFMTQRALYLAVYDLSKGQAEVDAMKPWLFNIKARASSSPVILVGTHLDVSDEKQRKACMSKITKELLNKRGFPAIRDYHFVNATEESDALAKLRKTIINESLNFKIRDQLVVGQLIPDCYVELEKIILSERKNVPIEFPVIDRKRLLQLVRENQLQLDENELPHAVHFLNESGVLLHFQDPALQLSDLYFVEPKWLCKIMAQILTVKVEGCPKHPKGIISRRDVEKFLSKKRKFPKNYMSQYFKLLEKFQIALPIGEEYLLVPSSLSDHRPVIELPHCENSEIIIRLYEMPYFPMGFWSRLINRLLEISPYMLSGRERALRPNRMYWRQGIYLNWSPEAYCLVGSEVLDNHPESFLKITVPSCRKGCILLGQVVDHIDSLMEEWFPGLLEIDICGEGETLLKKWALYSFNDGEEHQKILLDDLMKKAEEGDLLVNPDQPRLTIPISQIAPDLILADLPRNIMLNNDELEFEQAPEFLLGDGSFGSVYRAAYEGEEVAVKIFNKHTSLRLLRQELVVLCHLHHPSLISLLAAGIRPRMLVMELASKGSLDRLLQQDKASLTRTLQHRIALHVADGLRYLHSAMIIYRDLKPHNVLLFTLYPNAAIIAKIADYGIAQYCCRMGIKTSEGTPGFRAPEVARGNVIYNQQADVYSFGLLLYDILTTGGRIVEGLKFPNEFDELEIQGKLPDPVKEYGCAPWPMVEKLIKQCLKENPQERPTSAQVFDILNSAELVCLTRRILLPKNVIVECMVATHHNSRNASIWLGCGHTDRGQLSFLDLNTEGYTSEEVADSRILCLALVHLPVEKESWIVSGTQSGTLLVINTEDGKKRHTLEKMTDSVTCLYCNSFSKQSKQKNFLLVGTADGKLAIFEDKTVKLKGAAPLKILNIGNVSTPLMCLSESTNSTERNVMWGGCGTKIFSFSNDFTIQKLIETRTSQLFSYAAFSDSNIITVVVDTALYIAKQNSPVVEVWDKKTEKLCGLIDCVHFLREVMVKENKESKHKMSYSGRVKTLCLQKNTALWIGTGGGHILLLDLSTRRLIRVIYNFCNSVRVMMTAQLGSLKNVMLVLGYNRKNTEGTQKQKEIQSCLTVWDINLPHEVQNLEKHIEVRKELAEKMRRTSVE
Assay: Recombinant LRRK2 enzyme peptide substrate TR-FRET assay
Type: biochemical
Conditions: 60 nM LRRK2 (1326-2527), 1 uM Biotin-longer LRRKtide, 10 uM ATP; read-out: recombinant LRRK2 enzyme peptide substrate TR-FRET assay (pIC50) (converted)
Protocol: This gene fragment was subcloned into pFB-HTb (Invitrogen) using BamHI and NotI restriction sites. The LRRK2 plasmid was recombined into the baculovirus genome according to the BAC-to-BAC protocol described by Invitrogen. Transfection into Spodoptera frugiperda (Sf9) insect cells was performed using Cellfectin (Invitrogen), according to the manufacturer's protocol to generate P1 and P2 baculovirus stocks.
Sf9 cells were grown in HyClone SFX (Thermo Scientific) growth media at 27° C., 80 rpm in shake flask until of a sufficient volume to inoculate a bioreactor. […] The cells were infected with P2 Baculovirus at a multiplicity of infection (MOI) of 3. The cultivation was continued for a 48 hour expression phase. The infected cells were removed from the growth media by centrifugation at 2500 g using a Sorvall RC 3C Plus centrifuge at 2500 g for 20 minutes. The cell pellet was immediately frozen and subsequently supplied for purification.
A 260 g pellet was allowed to thaw in a water bath at 27° C. with 800 ml lysis buffer/buffer A (50 mm Tris-HCl pH 8.5, 300 mM NaCl, 1 mm DTT, 10% glycerol, 1 ml/L calbiochem complete protease inhibitor cocktail and benzonase (50 ul/800 ml)) before being dounce homogenised on ice using 20 strokes per 100 ml. The suspension was packed in ice and sonicated at 50% amplitude for 3 min 10 sec on/off using a ¾″ probe. The suspension was then centrifuged at 100,000 g for 90 min, at 4° C.
The lysate (700 ml) was decanted from the insoluble pellet and contacted for 3 h at 4 C with 10 ml His bind Ni NTA resin by end over end mixing. The resin was recovered by centrifugation, 3000 g, 5 min at 4 C, and packed in an XK16 column. The column was then washed with 10 column volumes buffer A, 10 column volumes buffer B (buffer A+1M NaCl) and 10 column volumes buffer C (buffer A+20 mM imidazole). The column was then eluted with 15 column volumes buffer D (buffer A+300 mM imidazole) collecting 2 ml fractions. All washes and elution were conducted at 4 ml/min.
Fractions identified by SDS-PAGE as containing protein of interest were pooled and loaded directly onto a 320 ml SEC Superdex 200 pg column that was pre-equilibrated with buffer E (50 mM Tris-HCl pH 8.5, 300 mM NaCl, 10% glycerol, 1 mM DTT). The column was loaded and eluted with 1.2 column volumes buffer E at 2 ml/min collecting 2 ml fractions. Fractions identified by SDS-PAGE as containing protein of interest were tested for activity.
Production of Biotin-Longer LRRKtide
The resulting crude peptide was cleaved from the resin using a 95:2.5:2.5 mix of trifluoroacetic acid:triisopropylsilane:water.
Recombinant LRRK2 Enzyme Peptide Substrate TR-FRET Assay
Assay Protocol • 1. A 10 mM test compound was dissolved in 100% DMSO and serially diluted 1 in 4. 100 nL was then added to a 384 well low volume black plate, excluding columns 6 and 18. 100 nL of DMSO was added to columns 6 and 18 as controls wells. […] Test plates were then incubated for 30 minutes at room temperature. • 3. 3 uL ‘substate solution’ containing 2 uM Biotin-longer LRRKtide peptide substrate and 20 uM ATP was added to all wells of the plate using a multidrop combi dispenser giving a final assay concentration of 1 uM Biotin-longer LRRKtide and 10 uM ATP. Test plates were then incubated for 2 hours at room temperature. (Incubation may vary depending on rate and linearity of reaction with different enzyme batches). • 4. […] Data is analysed using ActivityBase software (IDBS). Dilutions and concentrations of reagents determined on a batch to batch basis

Structure (SMILES)	IC50 [nM]
CCOc1nc(Nc2ccc(C(=O)N3CCOCC3)cc2OC)nc2[nH]ccc12 [Example E1, (4-((4-ethoxy-7H-pyrrolo-[2,3-d]-pyrimidin-2-yl)amino)-3-methoxyphenyl)(morpholino)methanone]	12.6
CCOc1nc(Nc2cc(F)c(C(=O)N3CCOCC3)cc2OC)nc2[nH]ccc12 [Example E2, (4-((4-ethoxy-7H-pyrrolo-[2,3-d]-pyrimidin-2-yl)amino)-2-fluoro-5-methoxyphenyl)(morpholino)methanone]	7.94
CCOc1nc(Nc2ccc(C(=O)N3CCOCC3)cc2)nc2[nH]ccc12 [Example E9, (4-((4-ethoxy-7H-pyrrolo-[2,3-d]pyrimidin-2-yl)amino)phenyl)(morpholino)methanone]	≤ 10
CCOc1cc(C(=O)N2CCOCC2)ccc1Nc1nc(OCC)c2cc[nH]c2n1 [Example E20, (3-ethoxy-4-((4-ethoxy-7H-pyrrolo-[2,3-d]pyrimidin-2-yl)amino)phenyl)(morpholino)methanone]	10
CCOc1nc(Nc2ccc(C(=O)N3CCN(C)CC3)cc2OC)nc2[nH]cc(C)c12 [Example E31, (4-((4-ethoxy-5-methyl-7H-pyrrolo-[2,3-d]pyrimidin-2-yl)amino)-3-methoxyphenyl)(4-methylpiperazin-1-yl)methanone]	≤ 10

Next, values leading:

IC50 [nM]	Structure (SMILES)
7.94	CCOc1nc(Nc2ccc(C(=O)N3CCN(C)CC3)cc2OC)nc2[nH]ccc12 [Example E3, (4-((4-ethoxy-7H-pyrrolo-[2,3-d]-pyrimidin-2-yl)amino)-3-methoxyphenyl)(4-methylpiperazin-1-yl)-methanone]
≤ 10	CCOc1nc(Nc2ccc(C(=O)N3CCC(N4CCN(C)CC4)CC3)cc2OC)nc2[nH]ccc12 [Example E4, (4-((4-ethoxy-7H-pyrrolo-[2,3-d]pyrimidin-2-yl)amino)-3-methoxyphenyl)(4-(4-methylpiperazin-1-yl)-piperidin-1-yl)-methanone]
≤ 10	CCOc1nc(Nc2ccc(C(=O)N3CCC4(CC3)CN(C)C4)cc2OC)nc2[nH]ccc12 [Example E13, (4-((4-ethoxy-7H-pyrrolo-[2,3-d]-pyrimidin-2-yl)amino)-3-methoxyphenyl)(2-methyl-2,7-diazaspiro-[3.5]-nonan-7-yl)methanone]
15.8	CCOc1nc(Nc2ccc(C(=O)N3CCC4(CC3)CC4)cc2OC)nc2[nH]ccc12 [Example E16, (4-((4-ethoxy-7H-pyrrolo-[2,3-d]-pyrimidin-2-yl)amino)-3-methoxyphenyl)(6-azaspiro-[2.5]octan-6-yl)methanone]
10	CCOc1nc(Nc2ccc(C(=O)N3CCN(C)CC3)cc2OC(C)C)nc2[nH]ccc12 [Example E24, (4-((4-ethoxy-7H-pyrrolo-[2,3-d]pyrimidin-2-yl)amino)-3-isopropoxyphenyl)(4-methylpiperazin-1-yl)methanone]
≤ 10	CCOc1nc(Nc2ccc(C(=O)N3CCOC[C@@H]3C)cc2OC)nc2[nH]ccc12 [Example E27, (S)-(4-((4-ethoxy-7H-pyrrolo-[2,3-d]pyrimidin-2-yl)amino)-3-methoxyphenyl)(3-methylmorpholino)methanone]
10	CCOc1nc(Nc2ccc(C(=O)N3CCN(C)C[C@H]3C)cc2OC)nc2[nH]ccc12 [Example E40, (R)-(2,4-dimethylpiperazin-1-yl)(4-((4-ethoxy-7H-pyrrolo-[2,3-d]-pyrimidin-2-yl)-amino)-3-methoxyphenyl)methanone]

From US9815841B2, “Compounds” (GLAXOSMITHKLINE INTELLECTUAL PROPERTY DEVELOPMENT LIMITED, priority 2014, dated 2017)
